In patent US6686370B2, “Triazospiro compounds having nociceptin receptor affinity” (Euro-Celtique S.A., priority 1999, dated 2004):

melting point: 192 to 193 °C
SMILES: O=C1NCN(c2ccccc2)C12CCN(C1CCc3ccccc3C1)CC2 (stereo not shown) [8-[1,2,3,4tetrahydronaphthyl]-1-phenyl-1,3,8-triazospiro[4.5]decan-4-one]
